Assay results from PubChem BioAssay AID330 (DTP/NCI, 2004).
Where “and” joins values, the source holds several entries; their conditions need not be identical. Equal values may be shown once. Toxic doses and inconclusive results are not listed.

Tested on: P388 leukemia ip, CD2F1 mice, survival T/C
Assay: NCI In Vivo Anticancer Drug Screen. Data for tumor model P388 Leukemia (intraperitoneal) in CD2F1 (CDF1) mice
Conditions: endpoint: median survival time, higher = longer survival
In short: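 Mice carrying the transplanted tumor received test compound or vehicle. Survival was recorded in each group, and the value is the treated-group measurement divided by that of the vehicle-treated control group.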

[1] = dose: 12.5 mg/kg/injection, schedule: Q01DX009 (ip), vehicle: water
[2] = dose: 20.0 mg/kg/injection, schedule: Q01DX009 (ip), vehicle: water
[3] = dose: 25.0 mg/kg/injection, schedule: Q01DX009 (ip), vehicle: water
[4] = dose: 50.0 mg/kg/injection, schedule: Q01DX009 (ip), vehicle: water
[5] = dose: 12.5 mg/kg/injection, schedule: Q01DX005 (ip), vehicle: saline
[6] = dose: 25.0 mg/kg/injection, schedule: Q01DX005 (ip), vehicle: saline
[7] = dose: 60.0 mg/kg/injection, schedule: Q01DX005 (ip), vehicle: saline with Tween-80
[8] = dose: 120.0 mg/kg/injection, schedule: Q01DX005 (ip), vehicle: saline with Tween-80
[9] = dose: 240.0 mg/kg/injection, schedule: Q01DX005 (ip), vehicle: saline with Tween-80
[10] = dose: 50.0 mg/kg/injection, schedule: Q01DX005 (ip), vehicle: saline with Tween-80
[11] = dose: 100.0 mg/kg/injection, schedule: Q01DX005 (ip), vehicle: saline with Tween-80
[12] = dose: 200.0 mg/kg/injection, schedule: Q01DX005 (ip), vehicle: saline with Tween-80

## C[C@@H]1C[C@@H]([C@H](O)CC2CC(=O)NC(=O)C2)C(=O)[C@@H](C)C1
dose: 3.89 mg/kg/injection, schedule: Q01DX009 (ip), vehicle: Klucel (hydroxypropylcellulose) (HPC)
  T/C: 99 % of control and 108 % of control
dose: 6.48 mg/kg/injection, schedule: Q01DX009 (ip), vehicle: Klucel (hydroxypropylcellulose) (HPC)
  T/C: 102 % of control and 104 % of control
dose: 10.8 mg/kg/injection, schedule: Q01DX009 (ip), vehicle: Klucel (hydroxypropylcellulose) (HPC)
  T/C: 104 % of control and 117 % of control
[1]
  T/C: 108 % of control and 115 % of control
dose: 18.0 mg/kg/injection, schedule: Q01DX009 (ip), vehicle: Klucel (hydroxypropylcellulose) (HPC)
  T/C: 106 % of control and 94 % of control
[2]
  T/C: 92 % of control
dose: 23.3 mg/kg/injection, schedule: Q04DX003 (ip), vehicle: Klucel (hydroxypropylcellulose) (HPC)
  T/C: 102 % of control and 104 % of control
[3]
  T/C: 117 % of control
dose: 30.0 mg/kg/injection, schedule: Q01DX009 (ip), vehicle: Klucel (hydroxypropylcellulose) (HPC)
  T/C: 113 % of control and 117 % of control
dose: 30.0 mg/kg/injection, schedule: Q01DX009 (ip), vehicle: water
  T/C: 95 % of control
dose: 38.9 mg/kg/injection, schedule: Q04DX003 (ip), vehicle: Klucel (hydroxypropylcellulose) (HPC)
  T/C: 111 % of control and 97 % of control
dose: 40.0 mg/kg/injection, schedule: Q01DX009 (ip), vehicle: water
  T/C: 100 % of control
[4]
  T/C: 99 % of control
dose: 64.8 mg/kg/injection, schedule: Q04DX003 (ip), vehicle: Klucel (hydroxypropylcellulose) (HPC)
  T/C: 104 % of control and 95 % of control
dose: 80.0 mg/kg/injection, schedule: Q01DX009 (ip), vehicle: water
  T/C: 109 % of control
dose: 100.0 mg/kg/injection, schedule: Q01DX001 (ip), vehicle: saline
  T/C: 110 % of control
dose: 108.0 mg/kg/injection, schedule: Q04DX003 (ip), vehicle: Klucel (hydroxypropylcellulose) (HPC)
  T/C: 109 % of control
dose: 120.0 mg/kg/injection, schedule: Q01DX009 (ip), vehicle: water
  T/C: 92 % of control
dose: 125.0 mg/kg/injection, schedule: Q01DX001 (ip), vehicle: saline
  T/C: 113 % of control
dose: 150.0 mg/kg/injection, schedule: Q01DX001 (ip), vehicle: saline
  T/C: 112 % of control
dose: 175.0 mg/kg/injection, schedule: Q01DX001 (ip), vehicle: saline
  T/C: 112 % of control
dose: 180.0 mg/kg/injection, schedule: Q04DX003 (ip), vehicle: Klucel (hydroxypropylcellulose) (HPC)
  T/C: 97 % of control
dose: 200.0 mg/kg/injection, schedule: Q01DX001 (ip), vehicle: saline
  T/C: 112 % of control

## CCN(CC)CCNc1ccc(CO)c2sc3ccccc3c(=O)c12
dose: 5.0 mg/kg/injection, schedule: Q01DX005 (ip), vehicle: water
  T/C: 110 % of control
dose: 5.0 mg/kg/injection, schedule: Q01DX009 (ip), vehicle: water
  T/C: 113 % of control
dose: 6.25 mg/kg/injection, schedule: Q01DX005 (ip), vehicle: saline
  T/C: 104 % of control
dose: 6.25 mg/kg/injection, schedule: Q01DX005 (iv), vehicle: saline
  T/C: 100 % of control
dose: 10.0 mg/kg/injection, schedule: Q01DX005 (ip), vehicle: water
  T/C: 106 % of control
dose: 10.0 mg/kg/injection, schedule: Q01DX009 (ip), vehicle: water
  T/C: 116 % of control
dose: 10.36 mg/kg/injection, schedule: Q01DX005 (ip), vehicle: water
  T/C: 118 % of control
[5]
  T/C: 101 % of control
dose: 12.5 mg/kg/injection, schedule: Q01DX005 (iv), vehicle: saline
  T/C: 104 % of control
[1]
  T/C: 109 % of control
dose: 17.28 mg/kg/injection, schedule: Q01DX005 (ip), vehicle: water
  T/C: 109 % of control
dose: 20.0 mg/kg/injection, schedule: Q01DX005 (ip), vehicle: water
  T/C: 104 % of control
[2]
  T/C: 118 % of control
[6]
  T/C: 109 % of control
dose: 25.0 mg/kg/injection, schedule: Q01DX005 (iv), vehicle: saline
  T/C: 108 % of control
[3]
  T/C: 122 % of control
dose: 28.8 mg/kg/injection, schedule: Q01DX005 (ip), vehicle: water
  T/C: 109 % of control
dose: 50.0 mg/kg/injection, schedule: Q01DX005 (iv), vehicle: saline
  T/C: 117 % of control
[4]
  T/C: 156 % of control
dose: 80.0 mg/kg/injection, schedule: Q01DX005 (ip), vehicle: water
  T/C: 151 % of control and 182 % of control
dose: 100.0 mg/kg/injection, schedule: Q01DX009 (ip), vehicle: water
  T/C: 100 % of control
dose: 100.0 mg/kg/injection, schedule: Q04DX003 (ip), vehicle: saline with Tween-80
  T/C: 118 % of control
dose: 200.0 mg/kg/injection, schedule: Q04DX003 (ip), vehicle: saline sonified
  T/C: 150 % of control
dose: 400.0 mg/kg/injection, schedule: Q04DX003 (ip), vehicle: saline with Tween-80
  T/C: 90 % of control

## CCNC(=O)NS(=O)(=O)c1ccc(Sc2ccc(C)cc2)nc1
[7]
  T/C: 98 % of control
[8]
  T/C: 101 % of control
[9]
  T/C: 94 % of control

## CC(=O)NCc1ccc(N2C(N)=NC(N)=NC2(C)C)cc1
dose: 25.0 mg/kg/injection, schedule: Q04DX002 (ip), vehicle: saline
  T/C: 100 % of control
dose: 50.0 mg/kg/injection, schedule: Q04DX002 (ip), vehicle: saline
  T/C: 116 % of control
dose: 100.0 mg/kg/injection, schedule: Q04DX002 (ip), vehicle: saline
  T/C: 100 % of control

## COc1cc(C2N=C(N)N=C(N)N2c2ccc(S(N)(=O)=O)cc2)cc(OC)c1OC (stereo not given)
dose: 60.0 mg/kg/injection, schedule: Q01DX005 (ip), vehicle: Klucel (hydroxypropylcellulose) (HPC)
  T/C: 103 % of control
dose: 120.0 mg/kg/injection, schedule: Q01DX005 (ip), vehicle: Klucel (hydroxypropylcellulose) (HPC)
  T/C: 103 % of control

## CC1(C)OC(COCCOCCOCCCC#N)C(COCCOCCOCCCC#N)O1 (stereo not given)
[6]
  T/C: 100 % of control
dose: 50.0 mg/kg/injection, schedule: Q01DX005 (ip), vehicle: saline
  T/C: 103 % of control
dose: 100.0 mg/kg/injection, schedule: Q01DX005 (ip), vehicle: saline
  T/C: 107 % of control
dose: 200.0 mg/kg/injection, schedule: Q01DX005 (ip), vehicle: saline
  T/C: 98 % of control

## O/N=C/c1cnns1
[10]
  T/C: 105 % of control
[11]
  T/C: 100 % of control
[12]
  T/C: 100 % of control

## O=C1C[C@@H]2OCC=C3C[N+]4([O-])CC[C@]56c7ccccc7N1[C@H]5[C@H]2[C@H]3C[C@@H]64 (stereo not given in full)
[5]
  T/C: 95 % of control
[6]
  T/C: 88 % of control

## CC(=N)C(C#N)C(=S)S (stereo not given)
dose: 50.0 mg/kg/injection, schedule: Q01DX009 (ip), vehicle: Klucel (hydroxypropylcellulose) (HPC)
  T/C: 102 % of control
dose: 100.0 mg/kg/injection, schedule: Q01DX009 (ip), vehicle: Klucel (hydroxypropylcellulose) (HPC)
  T/C: 86 % of control
dose: 200.0 mg/kg/injection, schedule: Q01DX009 (ip), vehicle: Klucel (hydroxypropylcellulose) (HPC)
  T/C: 89 % of control

## COc1ccc2[nH]c(=O)c(C#N)c(C)c2c1
dose: 12.5 mg/kg/injection, schedule: Q01DX005 (ip), vehicle: saline with Tween-80
  T/C: 95 % of control
dose: 25.0 mg/kg/injection, schedule: Q01DX005 (ip), vehicle: saline with Tween-80
  T/C: 91 % of control
[10]
  T/C: 104 % of control and 91 % of control

## COC1(OC)C2(Cl)C(Cl)=C(Cl)C1(Cl)C1CCCCC12 (stereo not given)
[7]
  T/C: 101 % of control
[8]
  T/C: 102 % of control
[9]
  T/C: 104 % of control

## O=C(Cc1ccc(OCc2ccccc2)cc1)NCc1ccc2c(c1)OCO2
dose: 15.0 mg/kg/injection, schedule: Q01DX005 (ip), vehicle: saline with Tween-80
  T/C: 96 % of control
dose: 30.0 mg/kg/injection, schedule: Q01DX005 (ip), vehicle: saline with Tween-80
  T/C: 91 % of control
[7]
  T/C: 89 % of control

## CCCCCCCC(=O)Nc1nnc(SCCCCCCSc2nnc(NC(=O)CCCCCCC)s2)s1
dose: 50.0 mg/kg/injection, schedule: Q01DX005 (ip), vehicle: Klucel + Tween-80
  T/C: 90 % of control
dose: 100.0 mg/kg/injection, schedule: Q01DX005 (ip), vehicle: Klucel + Tween-80
  T/C: 90 % of control
dose: 200.0 mg/kg/injection, schedule: Q01DX005 (ip), vehicle: Klucel + Tween-80
  T/C: 95 % of control

## CC1=NN(c2ccc(Cl)cc2)C(=O)/C1=C\c1c(C)[nH]n(-c2ccc(Cl)cc2)c1=O
[10]
  T/C: 110 % of control
[11]
  T/C: 101 % of control
[12]
  T/C: 96 % of control

## O=C(O)c1c(Cl)n(-c2ccccc2)c2c(C(=O)O)cccc12
dose: 100.0 mg/kg/injection, schedule: Q01DX001 (ip), vehicle: Klucel (hydroxypropylcellulose) (HPC)
  T/C: 97 % of control
dose: 200.0 mg/kg/injection, schedule: Q01DX001 (ip), vehicle: Klucel (hydroxypropylcellulose) (HPC)
  T/C: 97 % of control
dose: 400.0 mg/kg/injection, schedule: Q01DX001 (ip), vehicle: Klucel (hydroxypropylcellulose) (HPC)
  T/C: 97 % of control
